The values below come from ChEMBL document CHEMBL3779814, “6-O-Nucleotidyltransferase: an aminoglycoside-modifying enzyme specific for streptomycin/streptidine” (2016).

Converted amounts (≈) assume the structure as drawn. The source made the active and inactive calls. The calls are words filed in the database; no cut-off is given here.

Experiment [1] has as its system Bacillus subtilis. Nature of the experiment: Activity of Bacillus subtilis N-terminal His-tagged ANT(6) expressed in Escherichia coli BL21(DE3) cells assessed as adenylated product by Michaelis-Menten kinetics.
The subject of experiment [2] is Escherichia coli. Nature of the experiment: Antibacterial activity against Escherichia coli incubated for 12 hrs. It is filed as functional.
Experiment [3] concerns Escherichia coli. The experiment can be described thus: Antibacterial activity against Escherichia coli BL21(DE3) harboring pET plasmid incubated for 12 hrs. It is filed as functional.
Experiment [4] deals with Escherichia coli. Nature of the experiment: Antibacterial activity against Escherichia coli BL21(DE3) expressing Bacillus subtilis N-terminal His-tagged ANT(6) incubated for 12 hrs. It is filed as functional.
Experiment [5] concerns Bacillus subtilis. The experiment can be described thus: Activity of Bacillus subtilis N-terminal His-tagged ANT(6) expressed in Escherichia coli BL21(DE3) cells assessed as ratio of Kcat to Km of adenylated product by Michaelis-Menten kinetics.
In experiment [6] the test system is Escherichia coli. The experiment can be described thus: Antibacterial activity against Escherichia coli incubated for 12 hrs in presence of 2-deoxystreptidine. It is filed as functional.
For experiment [7], the system named is Escherichia coli. Nature of the experiment: Antibacterial activity against Escherichia coli BL21(DE3) harboring pET plasmid incubated for 12 hrs in presence of 2-deoxystreptidine. It is filed as functional.
In experiment [8] the test system is Escherichia coli. Nature of the experiment: Antibacterial activity against Escherichia coli BL21(DE3) expressing Bacillus subtilis N-terminal His-tagged ANT(6) incubated for 12 hrs in presence of 2-deoxystreptidine. It is filed as functional.
The subject of experiment [9] is Escherichia coli. The experiment can be described thus: Antibacterial activity against Escherichia coli in presence of streptidine. It is filed as functional.
Experiment [10] has as its system Escherichia coli. The experiment can be described thus: Antibacterial activity against Escherichia coli BL21(DE3) harboring pET plasmid in streptidine. It is filed as functional.
Experiment [11] relates to Escherichia coli. The experiment can be described thus: Antibacterial activity against Escherichia coli BL21(DE3) expressing Bacillus subtilis N-terminal His-tagged ANT(6) in presence of streptidine. It is filed as functional.
For experiment [12], the system named is Escherichia coli. Nature of the experiment: Antibacterial activity against Escherichia coli. It is filed as functional.
Experiment [13] concerns Escherichia coli. Nature of the experiment: Antibacterial activity against Escherichia coli BL21(DE3). It is filed as functional.
The subject of experiment [14] is Escherichia coli. Nature of the experiment: Antibacterial activity against Escherichia coli BL21(DE3) expressing ANT(6). It is filed as functional.
The subject of another experiment is Serratia marcescens. Nature of the experiment: Activity of Serratia marcescens ANT(3'')-1i/AAC(6')-2d expressed in Escherichia coli BL21(DE3) cells assessed as ratio of Kcat to Km of ANT(3'')-1i domain catalysed adenylated product by steady state kinetic analysis.

As for `NC[C@H]1O[C@H](O[C@H]2[C@H](O)[C@@H](O[C@H]3O[C@H](CO)[C@@H](O)[C@H](N)[C@H]3O)[C@H](N)C[C@@H]2N)[C@H](O)[C@@H](O)[C@@H]1O`, in the experiment on Bacillus subtilis [1], the result was inactive.
The same measure, in the same setting: under `NC[C@H]1O[C@H](O[C@H]2[C@H](O[C@@H]3O[C@H](CO)[C@@H](O)[C@H]3O)[C@@H](O)[C@H](N)C[C@@H]2N)[C@H](N)[C@@H](O)[C@@H]1O` stands “inactive”; under `Nc1ccn([C@@H]2O[C@H](COP(=O)(O)OP(=O)(O)OP(=O)(O)O)[C@@H](O)[C@H]2O)c(=O)n1`, “Active”; under `Nc1ncnc2c1ncn2[C@@H]1O[C@H](COP(=O)(O)CP(=O)(O)OP(=O)(O)O)[C@@H](O)[C@H]1O`, “inactive”.
For the molecule `N=C(N)N[C@@H]1[C@@H](O)[C@H](NC(=N)N)[C@@H](O)[C@H](O)[C@H]1O`, the MIC90 with Escherichia coli [2] is greater than 100 µg/mL; with Escherichia coli [3] it was greater than 100 µg/mL; in the experiment with Escherichia coli [4], greater than 200 µg/mL. For the same molecule, the kcat/Km in the experiment on Bacillus subtilis [5] was determined as 1.2 M⁻¹ s⁻¹. The Km with Bacillus subtilis [1] is 600 µM. For the same molecule, the kcat with Bacillus subtilis [1] amounted to 0.0006 s⁻¹.
Take `CN[C@@H]1[C@H](O[C@H]2[C@H](O[C@H]3[C@H](O)[C@@H](O)[C@H](N=C(N)N)[C@@H](O)[C@@H]3N=C(N)N)O[C@@H](C)[C@]2(O)C=O)O[C@@H](CO)[C@H](O)[C@H]1O` [STREPTOMYCIN]: the MIC90 came out at 2 µg/mL in the experiment with Escherichia coli [6]; 100 µg/mL in the experiment with Escherichia coli [7]; 100 µg/mL in the experiment with Escherichia coli [8]; 5 µg/mL in the experiment on Escherichia coli [9]; 5 µg/mL (≈ 8.6 µM) against Escherichia coli [10]; 10 µg/mL with Escherichia coli [11]. For the same molecule, the MIC90 is 5 µg/mL (≈ 8.6 µM) with Escherichia coli [12], 5 µg/mL (≈ 8.6 µM) in the experiment on Escherichia coli [13] and greater than 200 µg/mL with Escherichia coli [14]. Also, the figures for the kcat/Km with Bacillus subtilis [5] and in the experiment on Serratia marcescens were 9.2 ×10² /s/M and 3.2 ×10⁵ /s/M, respectively. In the experiment on Bacillus subtilis [1], the Km turned out to be 38 µM. Moreover, in the experiment on Bacillus subtilis [1], the kcat came out at 0.03 s⁻¹.
In the case of `N[C@@H]1C[C@H](N)[C@@H](O)[C@H](O)[C@H]1O`, the MIC90 against Escherichia coli [2] and with Escherichia coli [4] was greater than 100 µg/mL throughout.
On to `Nc1ncnc2c1ncn2[C@@H]1O[C@H](COP(=O)(O)OP(=O)(O)O)[C@@H](O)[C@H]1O`, for which, in the experiment on Bacillus subtilis [1], the outcome was inactive.
Take `O=c1ccn([C@@H]2O[C@H](COP(=O)(O)OP(=O)(O)OP(=O)(O)O)[C@@H](O)[C@H]2O)c(=O)[nH]1`: the outcome with Bacillus subtilis [1] was Active.
In the case of `Nc1ncnc2c1ncn2[C@@H]1O[C@H](COP(=O)(O)OP(=O)(O)OP(=O)(O)O)[C@@H](O)[C@H]1O`, the kcat/Km in the experiment with Bacillus subtilis [5] was found to be 2.1 ×10² /s/M. Moreover, in the experiment on Bacillus subtilis [1], the outcome was Active, the Michaelis constant (Km) turned out to be 84 µM and the kcat was 0.018 s⁻¹.
With `Nc1nc2c(ncn2[C@@H]2O[C@H](COP(=O)(O)OP(=O)(O)OP(=O)(O)O)[C@@H](O)[C@H]2O)c(=O)[nH]1`, the result in the experiment on Bacillus subtilis [1] was Active.
As to `Nc1ncnc2c1ncn2[C@@H]1O[C@H](COP(=O)(O)O)[C@@H](O)[C@H]1O`, in the experiment on Bacillus subtilis [1], the outcome was inactive.
